Data published in ChEMBL document CHEMBL5390253, “Discovery of Selective and Potent Macrocyclic CDK9 Inhibitors for the Treatment of Osimertinib-Resistant Non-Small-Cell Lung Cancer” (J Med Chem, 2023).
The source made the active and inactive calls. The calls are words filed in the database; no cut-off is given here.

How the values were obtained:
CDK9/cyclin T1 = CDK9/cyclin T1 (Homo sapiens, UniProt P50750); assay: Inhibition of CDK9/Cyclin-T1 (unknown origin) preincubated for 10 mins followed by substrate addition and measured after 60 mins in presence of ATP by ADP-Glo reagent based assay; assay type: protein-complex assay
CDK2/Cyclin A2 = CDK2/Cyclin A2 (Homo sapiens, UniProt P24941); assay: Inhibition of CDK2/Cyclin A2 (unknown origin) preincubated for 10 mins followed by substrate addition and measured after 60 mins in presence of ATP by ADP-Glo reagent based assay; assay type: protein-complex assay
NCI-H1975 [1] = assay: Antiproliferative activity against human NCI-H1975 cells incubated for 72 hrs by MTT assay; assay type: functional, cell-based; conditions: NCI-H1975, 72 h
HCC827 [2] = assay: Antiproliferative activity against human HCC827 cells incubated for 72 hrs by MTT assay; assay type: functional, cell-based; conditions: HCC827, 72 h
[3] = target: CDK9/cyclin T1 (Homo sapiens) (UniProt O60563+P50750); assay: Inhibition of CDK9/Cyclin-T1 (unknown origin) at 20 nM preincubated for 10 mins followed by substrate addition and measured after 60 mins in presence of ATP by ADP-Glo reagent based assay relative to control; assay type: protein-complex assay; conditions: time 70.0 min
[4] = target: CDK2/Cyclin A2 (Homo sapiens) (UniProt P24941+P20248); assay: Inhibition of CDK2/Cyclin A2 (unknown origin) at 100 nM preincubated for 10 mins followed by substrate addition and measured after 60 mins in presence of ATP by ADP-Glo reagent based assay relative to control; assay type: protein-complex assay; conditions: time 70.0 min
[5] = Downregulation of Mcl-1 in human NCI-H1975 cells at 500 nM relative to control; assay type: functional
[6] = target: Receptor-type tyrosine-protein kinase FLT3 (Homo sapiens) (UniProt P36888); assay: Inhibition of FLT3 (unknown origin) at 100 nM preincubated for 10 mins followed by substrate addition and measured after 60 mins in presence of ATP by ADP-Glo reagent based assay relative to control; conditions: time 70.0 min
[7] = target: Tyrosine-protein kinase JAK2 (Homo sapiens) (UniProt O60674); assay: Inhibition of JAK2 (unknown origin) at 100 nM preincubated for 10 mins followed by substrate addition and measured after 60 mins in presence of ATP by ADP-Glo reagent based assay relative to control; conditions: time 70.0 min
[8] = Antiproliferative activity against human Osimertinib-resistant NCI-H1975 cell incubated for 72 hrs by MTT assay; assay type: functional, cell-based; conditions: NCI-H1975, 72 h
HCC827 [9] = assay: Downregulation of Mcl-1 level in human HCC827 cells measured after 8 hrs by Western blotting analysis; assay type: functional, cell-based; conditions: dose <= 0.5 µM
NCI-H1975 [10] = assay: Downregulation of Mcl-1 level in human NCI-H1975 cells measured after 8 hrs by Western blotting analysis; assay type: functional, cell-based; conditions: dose <= 0.5 µM
[11] = test system: Osimertinib-resistant HCC827AR cell; assay: Downregulation of Mcl-1 level in human Osimertinib-resistant HCC827 cell at upto 0.5 uM measured after 8 hrs by Western blotting analysis; assay type: functional, cell-based
NCI-H1975 [12] = assay: Downregulation of Mcl-1 level in human Osimertinib-resistant NCI-H1975 cell at upto 0.5 uM measured after 8 hrs by Western blotting analysis; assay type: functional, cell-based
[13] = Antiproliferative activity against human Osimertinib-resistant NCI-H1975 cell assessed as cell growth inhibition at 125 nM incubated for 72 hrs by MTT assay relative to control; assay type: functional; design: scale not given: the % may be the effect or the level left
[14] = Induction of apoptosis in human Osimertinib-resistant NCI-H1975 cell assessed as viable cells at 125 nM measured after 16 hrs by Annexin V-FITC and PI staining based analysis (reference value: 94.9%); assay type: functional; conditions: read-out: Activity
[15] = Induction of apoptosis in human Osimertinib-resistant NCI-H1975 cell assessed as early apoptotic cells at 125 nM measured after 16 hrs by Annexin V-FITC and PI staining based analysis (Rvb =1.78%); assay type: functional
[16] = Induction of apoptosis in human Osimertinib-resistant NCI-H1975 cell assessed as late apoptotic cells at 125 nM measured after 16 hrs by Annexin V-FITC and PI staining based analysis (Rvb =2.84%); assay type: functional
[17] = Induction of apoptosis in human Osimertinib-resistant NCI-H1975 cell assessed as necrotic cells at 125 nM measured after 16 hrs by Annexin V-FITC and PI staining based analysis (reference value: 0.50%); assay type: functional
NCI-H1975 [18] = assay: Downregulation of Mcl-1 level in human Osimertinib-resistant NCI-H1975 cell at 2 uM measured after 8 hrs by Western blotting analysis; assay type: functional, cell-based
[19] = Induction of apoptosis in human Osimertinib-resistant NCI-H1975 cell assessed as viable cells at 500 nM measured after 16 hrs by Annexin V-FITC and PI staining based analysis (reference value: 94.9%); assay type: functional; conditions: read-out: Activity
[20] = Induction of apoptosis in human Osimertinib-resistant NCI-H1975 cell assessed as viable cells at 2000 nM measured after 16 hrs by Annexin V-FITC and PI staining based analysis (reference value: 94.9%); assay type: functional; conditions: read-out: Activity
[21] = Induction of apoptosis in human Osimertinib-resistant NCI-H1975 cell assessed as early apoptotic cells at 500 nM measured after 16 hrs by Annexin V-FITC and PI staining based analysis (reference value: 1.78%); assay type: functional
[22] = Induction of apoptosis in human Osimertinib-resistant NCI-H1975 cell assessed as early apoptotic cells at 2000 nM measured after 16 hrs by Annexin V-FITC and PI staining based analysis (reference value: 1.78%); assay type: functional
[23] = Induction of apoptosis in human Osimertinib-resistant NCI-H1975 cell assessed as late apoptotic cells at 500 nM measured after 16 hrs by Annexin V-FITC and PI staining based analysis (reference value: 2.84%); assay type: functional
[24] = Induction of apoptosis in human Osimertinib-resistant NCI-H1975 cell assessed as late apoptotic cells at 2000 nM measured after 16 hrs by Annexin V-FITC and PI staining based analysis (reference value: 2.84%); assay type: functional
[25] = Induction of apoptosis in human Osimertinib-resistant NCI-H1975 cell assessed as necrotic cells at 500 nM measured after 16 hrs by Annexin V-FITC and PI staining based analysis (reference value: 0.50%); assay type: functional
[26] = Induction of apoptosis in human Osimertinib-resistant NCI-H1975 cell assessed as necrotic cells at 2000 nM measured after 16 hrs by Annexin V-FITC and PI staining based analysis (reference value: 0.50%); assay type: functional
cells = conditions: Homo sapiens, Osimertinib-resistant HCC827AR cell, 72 h

CDK9/cyclin T1, sequence (O60563 whole entry): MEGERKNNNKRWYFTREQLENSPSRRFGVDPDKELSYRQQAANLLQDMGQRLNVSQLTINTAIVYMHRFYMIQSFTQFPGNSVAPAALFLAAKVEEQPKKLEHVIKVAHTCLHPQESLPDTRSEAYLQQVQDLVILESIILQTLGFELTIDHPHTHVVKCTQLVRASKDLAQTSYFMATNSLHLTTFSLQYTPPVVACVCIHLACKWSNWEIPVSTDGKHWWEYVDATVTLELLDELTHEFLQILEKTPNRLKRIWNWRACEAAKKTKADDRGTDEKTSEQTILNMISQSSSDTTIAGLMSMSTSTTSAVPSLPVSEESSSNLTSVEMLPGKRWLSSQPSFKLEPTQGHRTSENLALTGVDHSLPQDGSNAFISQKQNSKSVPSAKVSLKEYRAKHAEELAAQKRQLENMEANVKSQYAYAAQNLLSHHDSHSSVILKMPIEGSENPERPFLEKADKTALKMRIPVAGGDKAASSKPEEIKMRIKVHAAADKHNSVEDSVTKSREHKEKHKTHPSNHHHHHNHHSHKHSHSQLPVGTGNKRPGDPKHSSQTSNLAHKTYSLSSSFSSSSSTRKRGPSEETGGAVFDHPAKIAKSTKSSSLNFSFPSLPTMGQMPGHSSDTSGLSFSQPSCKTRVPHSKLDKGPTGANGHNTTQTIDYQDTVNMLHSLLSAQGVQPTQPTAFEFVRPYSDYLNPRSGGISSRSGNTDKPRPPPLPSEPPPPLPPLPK
CDK9/cyclin T1, sequence (P50750 whole entry): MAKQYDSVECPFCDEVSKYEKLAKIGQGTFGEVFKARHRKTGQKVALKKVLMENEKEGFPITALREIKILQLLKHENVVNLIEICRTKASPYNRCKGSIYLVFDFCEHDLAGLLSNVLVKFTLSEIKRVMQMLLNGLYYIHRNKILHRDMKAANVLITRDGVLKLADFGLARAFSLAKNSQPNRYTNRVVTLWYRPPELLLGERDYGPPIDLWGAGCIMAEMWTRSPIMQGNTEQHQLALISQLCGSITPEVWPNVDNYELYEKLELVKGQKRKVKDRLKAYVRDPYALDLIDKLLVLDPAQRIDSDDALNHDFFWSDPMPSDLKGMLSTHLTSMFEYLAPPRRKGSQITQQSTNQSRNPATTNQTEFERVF
Receptor-type tyrosine-protein kinase FLT3 (Homo sapiens), sequence (P36888 whole entry): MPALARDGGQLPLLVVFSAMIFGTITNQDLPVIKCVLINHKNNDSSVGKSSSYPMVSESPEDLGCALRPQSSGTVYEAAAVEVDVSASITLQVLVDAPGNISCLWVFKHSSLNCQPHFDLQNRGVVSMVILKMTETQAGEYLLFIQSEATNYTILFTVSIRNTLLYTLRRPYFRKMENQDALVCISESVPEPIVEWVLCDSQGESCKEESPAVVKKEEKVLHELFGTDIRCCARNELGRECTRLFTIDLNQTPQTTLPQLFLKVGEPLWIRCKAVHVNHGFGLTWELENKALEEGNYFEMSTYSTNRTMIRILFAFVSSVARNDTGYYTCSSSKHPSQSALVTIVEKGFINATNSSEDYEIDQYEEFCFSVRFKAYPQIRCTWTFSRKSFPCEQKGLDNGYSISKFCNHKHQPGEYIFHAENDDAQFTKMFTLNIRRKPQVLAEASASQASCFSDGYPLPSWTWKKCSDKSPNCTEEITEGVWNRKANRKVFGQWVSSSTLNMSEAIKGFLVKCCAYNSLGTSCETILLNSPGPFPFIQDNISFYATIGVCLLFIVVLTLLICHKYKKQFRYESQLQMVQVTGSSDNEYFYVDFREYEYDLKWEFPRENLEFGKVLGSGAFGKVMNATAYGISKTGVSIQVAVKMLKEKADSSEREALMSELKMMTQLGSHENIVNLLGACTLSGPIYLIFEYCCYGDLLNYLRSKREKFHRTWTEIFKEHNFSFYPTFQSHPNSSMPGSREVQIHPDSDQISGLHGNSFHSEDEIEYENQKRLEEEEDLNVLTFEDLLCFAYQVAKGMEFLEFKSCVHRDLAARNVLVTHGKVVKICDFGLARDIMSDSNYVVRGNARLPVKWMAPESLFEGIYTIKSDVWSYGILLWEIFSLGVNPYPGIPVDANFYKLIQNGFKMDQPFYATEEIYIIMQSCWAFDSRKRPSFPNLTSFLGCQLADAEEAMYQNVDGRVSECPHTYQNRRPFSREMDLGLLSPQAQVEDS
Tyrosine-protein kinase JAK2 (Homo sapiens), sequence (O60674 whole entry): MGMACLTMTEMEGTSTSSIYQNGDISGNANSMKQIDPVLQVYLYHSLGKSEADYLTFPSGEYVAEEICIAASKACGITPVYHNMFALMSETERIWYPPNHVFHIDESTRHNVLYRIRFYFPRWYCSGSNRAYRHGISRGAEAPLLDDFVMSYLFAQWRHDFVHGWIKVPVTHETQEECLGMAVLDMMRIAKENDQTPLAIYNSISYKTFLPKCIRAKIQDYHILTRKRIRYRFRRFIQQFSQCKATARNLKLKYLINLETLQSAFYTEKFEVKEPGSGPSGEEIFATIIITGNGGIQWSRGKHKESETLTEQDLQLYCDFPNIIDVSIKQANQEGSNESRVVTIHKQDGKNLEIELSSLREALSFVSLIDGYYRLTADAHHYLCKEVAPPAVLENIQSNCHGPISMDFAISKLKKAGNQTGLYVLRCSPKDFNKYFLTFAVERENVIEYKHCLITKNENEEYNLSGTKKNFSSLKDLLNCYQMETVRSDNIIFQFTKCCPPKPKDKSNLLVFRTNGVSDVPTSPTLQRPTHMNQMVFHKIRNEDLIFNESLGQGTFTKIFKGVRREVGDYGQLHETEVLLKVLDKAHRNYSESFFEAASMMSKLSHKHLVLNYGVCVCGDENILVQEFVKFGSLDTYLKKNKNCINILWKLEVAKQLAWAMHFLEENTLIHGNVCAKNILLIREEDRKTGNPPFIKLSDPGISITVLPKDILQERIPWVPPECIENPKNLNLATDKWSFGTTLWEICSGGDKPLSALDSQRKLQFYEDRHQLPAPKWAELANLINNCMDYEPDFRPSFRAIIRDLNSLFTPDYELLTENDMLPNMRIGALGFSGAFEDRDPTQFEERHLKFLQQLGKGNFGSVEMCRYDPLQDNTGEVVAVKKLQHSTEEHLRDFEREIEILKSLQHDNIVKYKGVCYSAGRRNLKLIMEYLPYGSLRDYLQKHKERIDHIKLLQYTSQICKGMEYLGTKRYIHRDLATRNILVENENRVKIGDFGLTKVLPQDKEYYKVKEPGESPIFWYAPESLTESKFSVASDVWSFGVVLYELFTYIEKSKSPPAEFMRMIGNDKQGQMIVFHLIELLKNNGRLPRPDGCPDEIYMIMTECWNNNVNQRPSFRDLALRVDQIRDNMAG

Structure (SMILES)	IC50 (CDK9/cyclin T1) [nM]	IC50 (CDK2/Cyclin A2) [nM]	IC50 (NCI-H1975 [1]) [nM]	IC50 (HCC827 [2]) [nM]	Activity [5] [%]	also measured
O=C(NCCN1CCOCC1)c1ccc2cc1COCCCCOCc1cc(ccc1F)-c1nc(ncc1F)N2	7.7	140	613	–	–	–
O=C(c1ccc2cc1OCCCCOc1cc(ccc1F)-c1nc(ncc1F)N2)N1CCNCC1	–	–	1060	2470	–	inhibition [3]: 45.7%; inhibition [4]: 32.9%
CN(C)CCNC(=O)c1ccc2cc1OCCCCOc1cc(ccc1F)-c1nc(ncc1F)N2	1.1	3.2	26	31	82.6	–
O=C(NC1CCN(C2CCOCC2)CC1)c1ccc2cc1OCCCCCCOc1cc(ccc1F)-c1nc(ncc1F)N2	2.6	117	373	255	54.4	–
COc1cc(F)ccc1-c1ncnc(Nc2ccc(C(=O)NCCN(C)C)cc2)n1	3.1	24	254000	340000	–	–
O=C(NC1CCC(N2CCOCC2)CC1)c1ccc2cc1OCCCCCCOc1cc(ccc1F)-c1nc(ncc1F)N2 (stereo unspecified)	2	715	814	421	64.6	–
O=C(c1ccc2cc1OCCCCOc1cc(ccc1F)-c1nc(ncc1F)N2)N1CCCNCC1	–	–	1180	1940	-27	inhibition [3]: 27%; inhibition [4]: 21.2%
O=C(NCCN1CCOCC1)c1ccc2cc1OCCCCCOc1cc(ccc1F)-c1nc(ncc1F)N2	1.1	66.2	115	267	73.4	inhibition [6]: 62.8%; inhibition [7]: 56.5%
CN1CCC(NC(=O)c2ccc3cc2OCCCCCCOc2cc(ccc2F)-c2nc(ncc2F)N3)CC1	3.2	30.7	135	–	–	–
C=CC(=O)Nc1cc(Nc2nccc(-c3cn(C)c4ccccc34)n2)c(OC)cc1N(C)CCN(C)C [OSIMERTINIB]	–	–	[…]	57	–	IC50 [8]: 4690 nM; Activity (HCC827 [9]): Dose-Dependent Effect; Activity (NCI-H1975 [10]): Dose-Dependent Effect; Activity [11]: inactive; Activity (NCI-H1975 [12]): inactive; Activity [13]: 10%; viability at 0.125 µM [14]: 92.4%; Activity [15]: 2.52%; Activity [16]: 1.8%; Activity [17]: 3.25%
O=C(NCCN1CCOCC1)c1ccc2cc1OCCCCOc1cc(ccc1F)-c1nc(ncc1F)N2	0.9	34.2	21	182	95.6	inhibition [6]: 77.3%; inhibition [7]: 79.7%
O=C(NC1CCCNCC1)c1ccc2cc1OCCCCOc1cc(ccc1F)-c1nc(ncc1F)N2 (stereo unspecified)	3.1	54.3	116	403	21.1	–
O=C(c1ccc2cc1OCCCCOc1cc(ccc1F)-c1nc(ncc1F)N2)N1CCC(N2CCOCC2)C1 (stereo unspecified)	–	–	1870	5170	–	inhibition [3]: 27.6%; inhibition [4]: 11.7%
O=C(c1ccc2cc1OCCCCOc1cc(ccc1F)-c1nc(ncc1F)N2)N1CCC(N2CCOCC2)CC1	–	–	2680	4780	-34	inhibition [3]: 20.9%; inhibition [4]: 9.1%
COc1cc(F)ccc1-c1ncnc(Nc2cccc(C[S@](C)(=N)=O)c2)n1 [ATUVECICLIB]	–	–	–	–	–	IC50 [8]: 1080 nM; Activity (NCI-H1975 [18]): Active; viability at 0.5 µM [19]: 91.3%; viability at 2 µM [20]: 91.9%; Activity [21]: 3.16%; Activity [22]: 2.58%; Activity [23]: 4.49%; Activity [24]: 3.66%; Activity [25]: 1.06%; Activity [26]: 1.84%; IC50 (cells): 990 nM
CN1CCN(CCNC(=O)c2ccc3cc2OCCCCCCOc2cc(ccc2F)-c2nc(ncc2F)N3)CC1	2.3	25.4	143	–	–	–
O=C(NCCN1CCOCC1)c1ccc2cc1OCCOCCOc1cc(ccc1F)-c1nc(ncc1F)N2	2.1	10	54	52	–	inhibition [6]: 68.7%; inhibition [7]: 71.4%
O=C(NC1CCOCC1)c1ccc2cc1OCCCCOc1cc(ccc1F)-c1nc(ncc1F)N2	2.8	95.1	283	181	99	inhibition [6]: 60.9%; inhibition [7]: 73.2%
O=C(NCC1CCNCC1)c1ccc2cc1OCCCCOc1cc(ccc1F)-c1nc(ncc1F)N2	2.1	15	336	343	1.6	–
